# Experimental data: article PMC11224403, “Des-acyl ghrelin reduces alcohol intake and alcohol-induced reward in rodents” (Translational Psychiatry, 2024)
# System: male mice
# Experiment: Locomotor activity test, alcohol-induced stimulation and DAG per se, mice
# Type: in vivo, NMRI mice
# Text: Male and female Rcc Han Wistar rats (8–12 weeks old at arrival; Envigo, Horst, Netherlands) were used for the alcohol drinking and locomotor activity experiments as they drink alcohol to intoxicating levels. For in vivo microdialysis studies male Wistar rats (Charles River, Calco, Italy) were used as they display robust dopamine levels in NAc shell after alcohol injection. […] All rodents were allowed to habituate to the animal facility at least one week before they entered an experiment. […] The sample sizes of each experiment were based on previous experience in which statistical significance has been detected. The person who conducted the experiments, and analyzed the collected data was aware of the treatment allocation. Only preset exclusion criteria were used when analyzing the data obtained in attempts to exclude confounding factors in analyzing data. In the alcohol drinking experiments leaking bottles and low alcohol consumption (<3.0 g/kg for males; <3.5 g/kg for females) were preset exclusion criteria. The preset exclusion criterion in the ex vivo HPLC-EC, ELISA, and recombinant cell line experiments was contamination of the sample. Misplaced probes, technical difficulties, and damages to the surgery area were preset exclusion criteria for the in vivo microdialysis experiment. Intra-cage male aggression was the preset exclusion criterion for the locomotor activity and CPP experiments. To minimize tentative confounding factors, the order of treatments was stratified, with treatments being mixed for each animal cage and for each apparatus used as well as balancing the alcohol intake between future treatment groups.
# Alcohol was in the behavioral and neurochemical tests injected (intraperitoneally, IP) 5 min before the test.
# Locomotor activity tests were conducted in ventilated and dim-lit (4 lux) open field arenas (420 × 420 × 200 mm; Med Associates Inc; Georgia, Vermont, USA). Infra-red beams detected distance traveled, number of jumps, vertical counts, average velocity, stereotypic counts, number of inner zone entries, and time spent in the inner/outer zones of each animal.
# In the first test, after 60 min of habituation, male (n = 24) or female (n = 24) rats were injected with vehicle or DAG (0.5, 1.0, or 2.0 mg/kg). 15 min later the activity was monitored for another 60 min. In the second locomotor activity experiment, male mice (n = 32) were allowed to habituate for 60 min. After that, they were injected with vehicle or DAG (0.25, 0.5, or 1.0 mg/kg). After 15 min the activity was monitored for another 60 min.
# Therefore, male mice were (n = 32) injected with DAG (1.0 mg/kg) or vehicle 15 min before alcohol or vehicle. The activity registration started 5 min later and was recorded for an additional 60 min. Identical locomotor activity experiments were conducted in new male mice (n = 32), where a lower dose of DAG (0.5 mg/kg) was combined with alcohol.
# The data from drinking experiments were analyzed by unpaired t-test or repeated two-way ANOVA. A two-tailed unpaired t-test analyzed the ELISA, ex vivo HPLC-EC, and cFOS data. In addition, the Pearson test correlated the serum levels and the mean values of alcohol intake in rats. A one-way ANOVA with Bonferroni post hoc tests and unpaired t-test analyzed the locomotor activity and CPP data, respectively. The in vivo microdialysis experiments were evaluated by a repeated two-way ANOVA followed by the Bonferroni post hoc test.
substance,measurement,setting,value
"des-acyl ghrelin (GSSFLSPEHQRVQQRKESKKPPAKLQPR; Ghrelin-28 non-acylated; UniProt Q9UBU3 24-51, looked up) [DAG, non-octanoylated form of ghrelin; purchased from Tocris (printed Tocrise Bioscience), dissolved in 0.9% NaCl]",alcohol-induced locomotor stimulation (effect of DAG),"DAG 0.5 mg/kg plus alcohol, n = 8 per group (vehicle-vehicle one removed)",reduced but did not block (P = 0.5319)
same,alcohol-induced locomotor stimulation (effect of DAG),"DAG 1 mg/kg 15 min before alcohol 1.75 g/kg IP, n = 8 per group",prevented the alcohol-induced locomotor stimulation (P = 0.0305)
same,"locomotor activity, DAG per se","DAG 1 mg/kg without alcohol, n = 8 per group",did not alter the activity of the mice (P > 0.9999)
same,"locomotor activity, DAG per se, dose finding","DAG 0.25, 0.5 or 1.0 mg/kg, 60 min recording, n = 8 per group, data not shown",did not influence locomotor activity
